Test results reported in patent US4080467A, “Pharmaceutical compositions comprising 1,3-dithiolan-2-ylidene malonate derivatives” (Nihon Nohyaku Co., Ltd., priority 1976, dated 1978).

Columns and labels:
[1] = Effect on concentration of ethyl alcohol in the blood; assay type: in vivo, mice; details: 250 mg/kg oral 6 h before ethyl alcohol 1,000 mg/kg
Experimental: The test compounds are dissolved or suspended in olive oil and administered orally at the dose of 250 mg/kg to the mice. After 6 hours, 1,000 mg/kg of ethyl alcohol was given orally. Blood was taken in a capillary from caudal vein at the time indicated in the results. The plasma was obtained by centrifugation. The concentration of ethyl alcohol in the plasma was measured by FID type gas liquid chromatography. Five mice were used for each group.

[2] = test system: bile flow and biliary salt; test: Cholagogic action: bile flow and excretion of biliary salt; assay type: in vivo, male rat (4 week-aged, SD-JCL strain); details: 200 mg/kg oral; for bile flow / excretion of biliary salt: before treatment = 100
[3] = test system: fatty liver (carbon tetrachloride); test: Therapeutic effect on fatty liver (carbon tetrachloride model); assay type: in vivo, male rat (35 week-old, SD strain); details: for Degree of fatty liver (histopathological examination): 10 days, one symbol per animal
Experimental: Carbon tetrachloride also induces fatty liver, but the picture of disease differs from the case of ethionine-induced fatty liver. Carbon tetrachloride is generally considered to damage microsome and thereby to inhibit protein synthesis and induce fatty liver.
Carbon tetrachloride was subscutaneously administered to 35 week-old male rat (SD strain) for 4 days at the dose of 1 ml/kg. The treated animals were left for 3 days after the last administration to maximize the manifestation of fatty liver.
Administration of the compounds of this invention was commenced on the fourth day after the administration of carbon tetrachloride was completed. It was orally given everyday for 10 days at the dose of 50 or 250 mg/kg. On the 11th day, the animals were sacrificed. The therapeutic effect was evaluated by determining the content of lipid in the liver (triglyceride and total lipid) and examining the histopathological changes. Triglyceride and total lipid were determined colorimetrically by chromotropic acid method and Bragdon's oxidation method, respectively.
Indices for the histopathological change is as follows.

[4] = test system: Chronic Liver Damage (thioacetamide); test: Therapeutic effect on chronic liver damage (thioacetamide model), BSP test; assay type: in vivo, rats (Sprague Dawley strain); details: 12 times TAA 100 mg/kg, then diet + 0.2% compound
Experimental: In the tests of this Example, TAA was repeatedly administered to animals to prepare test animals suffering from somewhat chronic liver damages, and then the present compounds were administered thereto to know whether or not the compounds were effective against chronic hepatitis.
The degree of the liver damage and the therapeutic effects of the compounds were evaluated according to BSP test. The BSP test is a method in which BSP (sulfobromophthalein sodium), a dye known to be quickly metabolized in and excreted from the liver, is intravenously injected into animals and, after a definite period of time, the blood is taken out to measure the amount of BSP remaining in the plasma. In case the animals are suffering from the liver damage, the dye will remain, according to the degree of the damage, at the stage where a major portion of BSP is metabolized and excreted in the case of normal animals.
Five groups of rats (Sprague Dawley strain) were treated as follows:
Group A: The rats were orally administered with 100 mg/kg of thioacetamide,at 3 days intervals for 36 days (12 times of the administration), then were submitted for 10 days to a normal diet.
Group B: The rats were orally administered with 100 mg/kg of thioacetamide at 3 days intervals for 36 days (12 times of the administration), then were submitted for 10 days to the normal diet + 0.2% of compound 4.
Group C: The rats were orally administered with 100 mg/kg of thioacetamide at 3 days intervals for 36 days (12 times of the administration) then were submitted for 10 days to the normal diet + 0.2% of compound 2.
Group D: The rats were orally administered with 100 mg/kg of thioacetamide at 3 days intervals for 36 days (12 times of the administration) then were submitted for 10 days to the normal diet + 0.2% of anethol trithion.
Group E: The rats were submitted to the normal diet as the control.
Five rats were sacrified from each group at appropriate intervals for BSP (sulfobromophthalein) test, the results of which were shown as amounts (mg) of BSP remaining in 1 dl of plasma.

[5] = test system: cirrhosis (carbon tetrachloride); test: Therapeutic effect on cirrhosis (carbon tetrachloride); assay type: in vivo, male rat (4 week-old SD-strain); details: for Degree of cirrhosis (histopathological examination): 2000 ppm diet, one symbol per animal; for p-GOT activity / p-GPT activity: diet containing 2000 ppm
Experimental: The therapeutic effect of the compound of this invention on cirrhosis, which had been caused by carbon tetrachloride administration, was examined.
A 10% solution of carbon tetrachloride in olive oil was administered to the male rat (4 week-old SD-strain) intraperitoneally at the dose of 0.5 ml carbon tetrachloride/kg twice a week for a period of 10 weeks, to induce cirrhosis. Four days after the final administration of carbon tetrachloride, the formation of pseudo-lobulus was confirmed. Then the diseased animals were divided into two groups. Therapeutic group was submitted a diet containing 2000 ppm of Compound 4, while the positive control group was submitted a normal diet. Control group, to which olive oil alone had been administered, was submitted a normal diet.
At 1, 2, 4 and 8 weeks after beginning of Compound 4 feeding, 5 animals from each group were sacrificed, and the therapeutic effect on cirrhosis was evaluated by examining plasma transaminase activity (p-GPT and p-GOT, Reitman-Frankel method) and observing histopathological changes.
Degree of cirrhosis in the histopathological examination was graded as follows: […]

[6] = 50 mg/kg oral everyday for 10 days
[7] = 250 mg/kg oral everyday for 10 days

In the case of `CC(C)OC(=O)C(C(=O)OC(C)C)=C1SCCS1` [Compound 4, Diisopropyl 1,3-dithiolan-2-yliden malonate], the “Concentration of Ethyl alcohol in Plasma” value ([1]; 0 min) was 9±4 ppm, the “Concentration of Ethyl alcohol in Plasma” value ([1]; 5 min) was 727±84 ppm and the “Concentration of Ethyl alcohol in Plasma” value ([1]; 15 min) was 715±146 ppm. The “Concentration of Ethyl alcohol in Plasma” value ([1]; 30 min) was 430±105 ppm, the “Concentration of Ethyl alcohol in Plasma” value ([1]; 60 min) was 13±11 ppm and the bile flow ([2]; 1 hour after treatment) was 110±4.2. The “excretion of biliary salt” value ([2]; 1 hour after treatment) was 105±13, the bile flow ([2]; 2 hours after treatment) was 115±6.3 and the “excretion of biliary salt” value ([2]; 2 hours after treatment) was 125±20. The bile flow ([2]; 3 hours after treatment) was 110±7.2, the “excretion of biliary salt” value ([2]; 3 hours after treatment) was 132±26 and the bile flow ([2]; 4 hours after treatment) was 112±8.5. For the same molecule, the “excretion of biliary salt” value ([2]; 4 hours after treatment) was 115±23, the bile flow ([2]; 5 hours after treatment) was 92±4.7 and the “excretion of biliary salt” value ([2]; 5 hours after treatment) was 81±7.2. For the same molecule, the “Amount of total biliary salts excreted for 5 hours relative to control” value ([2]; versus control) was 1.61 times, the “Quantity of total excreted bile for 5 hours relative to control” value ([2]; versus control) was 1.15 times and the Total lipid [3, 6] was 107.6 ± 12.3 mg/g-liver. For the same molecule, the Triglyceride [3, 6] was 42.3 ± 6.3 mg/g-liver, the “Degree of fatty liver (histopathological examination)” value ([3]; 50 mg/kg oral) was “± ± and ± ± ± + ±” and the Total lipid [3, 7] was 72.3 ± 9.6 mg/g-liver. For the same molecule, the Triglyceride [3, 7] was 23.6 ± 3.8 mg/g-liver, the “Degree of fatty liver (histopathological examination)” value ([3]; 250 mg/kg oral) was “- - ± ± - ±” and the “Concentration of BSP in plasma” value ([4]; 2 Days) was 7.6 ± 1.1 mg/dL. The “Concentration of BSP in plasma” value ([4]; 5 Days) was 3.8 ± 0.5 mg/dL, the “Concentration of BSP in plasma” value ([4]; 10 Days) was 0.3 ± 0.1 mg/dL and the “Degree of cirrhosis (histopathological examination)” value ([5]; 1 week) was “+ +++ + ++ +++”. The “Degree of cirrhosis (histopathological examination)” value ([5]; 2 weeks) was “++ ±”, the “Degree of cirrhosis (histopathological examination)” value ([5]; 8 weeks) was “+ ± and +++ ±” and the p-GOT activity ([5]; 1 week) was 277±135 Karmen unit. For the same molecule, the p-GPT activity ([5]; 1 week) was 81.6±25.9 Karmen unit, the p-GOT activity ([5]; 2 weeks) was 96.8±2.6 Karmen unit and the p-GPT activity ([5]; 2 weeks) was 28.8±3.0 Karmen unit. For the same molecule, the p-GOT activity ([5]; 4 weeks) was 64.0±5.5 Karmen unit, the p-GPT activity ([5]; 4 weeks) was 40.6±3.8 Karmen unit and the p-GOT activity ([5]; 8 weeks) was 91.8±7.2 Karmen unit. The p-GPT activity ([5]; 8 weeks) was 32.8±6.1 Karmen unit.
